The target of this assay is SHP2 (Homo sapiens (Human), UniProt Q06124). Put plainly: SHP2-catalyzed hydrolysis of p-nitrophenyl phosphate (pNPP). It is filed as biochemical. As to conditions: for IC50: pNPP substrate, pH 7.0, 25° C. How it is done:
Libraries 11a-d were screened at ˜5 μM for SHP2 inhibitors without further purification. The ability of the library components to inhibit the SHP2-catalyzed hydrolysis of p-nitrophenyl phosphate (pNPP) was evaluated at pH 7.0 and 25° C. More particularly, the phosphatase activity of SHP2 was assayed using p-nitrophenyl phosphate (pNPP) as a substrate at 25° C. in 50 mM 3,3-dimethylglutarate buffer, pH 7.0, containing 1 mM EDTA with an ionic strength of […] adjusted by NaCl. The libraries were screened in a 96-well format at 5 μM compound concentration. […] The nonenzymatic hydrolysis of pNPP was corrected by measuring the control without the addition of enzyme. The amount of product p-nitrophenol was determined from the absorbance at 405 nm detected by a Spectra MAX340 microplate spectrophotometer (Molecular Devices, Sunnyvale, Calif.) using a molar extinction coefficient of 18,000 M^−1 cm^−1. […] IC50 values for selected resynthesized and purified hits were calculated by fitting the absorbance at 405 nm versus inhibitor concentration to the following equation: AI/A0=IC50/(IC50+[I]) where AI is the absorbance at 405 nm of the sample in the presence of the inhibitor; A0 is the absorbance at 405 nm in the absence of inhibitor; and [I] is the concentration of the inhibitor.

Where only a bound is given, the exact number is not on record here.

Chain of SHP2 (Q06124 whole entry, looked up): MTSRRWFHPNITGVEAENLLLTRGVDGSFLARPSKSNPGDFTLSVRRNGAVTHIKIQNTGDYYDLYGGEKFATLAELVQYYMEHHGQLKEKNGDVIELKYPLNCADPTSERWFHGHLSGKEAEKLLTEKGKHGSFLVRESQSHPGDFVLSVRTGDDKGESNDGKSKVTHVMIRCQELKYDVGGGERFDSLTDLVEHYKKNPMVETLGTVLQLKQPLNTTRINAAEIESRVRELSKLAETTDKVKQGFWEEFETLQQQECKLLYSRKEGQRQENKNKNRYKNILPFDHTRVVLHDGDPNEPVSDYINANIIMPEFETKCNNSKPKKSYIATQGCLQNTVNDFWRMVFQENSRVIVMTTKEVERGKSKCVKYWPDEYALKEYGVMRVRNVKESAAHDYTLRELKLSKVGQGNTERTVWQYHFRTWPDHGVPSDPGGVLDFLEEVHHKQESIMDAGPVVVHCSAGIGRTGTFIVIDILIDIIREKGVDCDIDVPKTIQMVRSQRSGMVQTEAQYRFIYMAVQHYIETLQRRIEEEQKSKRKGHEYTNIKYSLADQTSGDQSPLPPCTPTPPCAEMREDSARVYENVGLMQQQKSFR

Turning to `Cn1c(-c2cccc(NC(=O)C(=O)Nc3cccc(Cl)c3)c2)c(I)c2cc(C(=O)O)c(O)cc21` [11a-11, 2-(3-(2-((3-chlorophenyl)amino)-2-oxoacetamido)phenyl)-6-hydroxy-3-iodo-1-methyl-1H-indole-5-carboxylic acid], the IC50 (commonly the midpoint of a concentration-inhibition curve) worked out at 1460 ± 450 nM.

Consider `Cn1c(-c2cccc(NC(=O)C(=O)Nc3ccc(-c4ccc(C#N)cc4)cc3)c2)c(I)c2cc(C(=O)O)c(O)cc21` [11a-21, 2-(3-(2-((4′-cyano-[1,1′-biphenyl]-4-yl)amino)-2-oxoacetamido)phenyl)-6-hydroxy-3-iodo-1-methyl-1H-indole-5-carboxylic acid], for which the 50% inhibitory concentration (IC50) was 220 ± 10 nM.

Regarding `Cn1c(-c2cccc(NC(=O)CCC(=O)Nc3ccc(-c4ccsc4)cc3)c2)c(I)c2cc(C(=O)O)c(O)cc21` [11c-1, 6-hydroxy-3-iodo-1-methyl-2-(3-(4-oxo-4-((4-(thiophen-3-yl)phenyl)amino)butanamido)phenyl)-1H-indole-5-carboxylic acid], the “IC50 for SHP2, times higher than that of 11a-1” value is “more than 10 times” and half-maximal inhibition (IC50) required 2300 nM.

As for `Cn1c(-c2cccc(NC(=O)CCC(=O)Nc3ccc(OC(F)(F)F)cc3)c2)c(I)c2cc(C(=O)O)c(O)cc21` [11c-7, 6-hydroxy-3-iodo-1-methyl-2-(3-(4-oxo-4-((4-(trifluoromethoxy)phenyl)amino)butanamido)phenyl)-1H-indole-5-carboxylic acid], half-maximal inhibition (IC50) required 8600 ± 2300 nM.

For the compound `Cn1c(-c2cccc(NC(=O)C(=O)Nc3ccc(OCc4ccccc4)c(Cl)c3)c2)c(I)c2cc(C(=O)O)c(O)cc21` [11a-3, 2-(3-(2-((4-(benzyloxy)-3-chlorophenyl)amino)-2-oxoacetamido)phenyl)-6-hydroxy-3-iodo-1-methyl-1H-indole-5-carboxylic acid], the “SHP2 inhibition, in words” value was “submicromolar” and the IC50 amounted to 660 ± 30 nM.

Turning to `Cn1c(-c2cccc(NC(=O)C(=O)Nc3cccc(Br)c3)c2)c(I)c2cc(C(=O)O)c(O)cc21` [11a-18, 2-(3-(2-((3-bromophenyl)amino)-2-oxoacetamido)phenyl)-6-hydroxy-3-iodo-1-methyl-1H-indole-5-carboxylic acid], the IC50 stood at 2730 ± 550 nM.

In turn, `Cn1c(-c2cccc(NC(=O)CCC(=O)NCc3ccc4c(c3)OCO4)c2)c(I)c2cc(C(=O)O)c(O)cc21` [11c-9, 2-(3-(4-((benzo[d][1,3]dioxol-5-ylmethyl)amino)-4-oxobutanamido)phenyl)-6-hydroxy-3-iodo-1-methyl-1H-indole-5-carboxylic acid] showed an IC50 of 14000 ± 1000 nM.

The compound `Cn1c(-c2cccc(NC(=O)C(=O)Nc3ccc(I)cc3)c2)c(I)c2cc(C(=O)O)c(O)cc21` [11a-8, 6-hydroxy-3-iodo-2-(3-(2-((4-iodophenyl)amino)-2-oxoacetamido)phenyl)-1-methyl-1H-indole-5-carboxylic acid] yielded an IC50 of 1200 ± 210 nM.

In the case of `Cn1c(-c2cccc(NC(=O)C(=O)Nc3cccc(-c4ccco4)c3)c2)c(I)c2cc(C(=O)O)c(O)cc21` [11a-24, 2-(3-(2-((3-(furan-2-yl)phenyl)amino)-2-oxoacetamido)phenyl)-6-hydroxy-3-iodo-1-methyl-1H-indole-5-carboxylic acid], the IC50 worked out at 380 ± 10 nM.

`Cn1c(-c2cccc(NC(=O)C(=O)Nc3ccc(-c4ccccc4)cc3)c2)c(I)c2cc(C(=O)O)c(O)cc21` [11a-2, 2-(3-(2-([1,1′-biphenyl]-4-ylamino)-2-oxoacetamido)phenyl)-6-hydroxy-3-iodo-1-methyl-1H-indole-5-carboxylic acid]: the “SHP2 inhibition, in words” value is “strongly inhibited” and the IC50 worked out at 620 ± 50 nM.

As for `Cn1c(-c2cccc(NC(=O)C(=O)Nc3cccc(-c4ccccc4)c3)c2)c(I)c2cc(C(=O)O)c(O)cc21` [11a-5, 2-(3-(2-([1,1′-biphenyl]-3-ylamino)-2-oxoacetamido)phenyl)-6-hydroxy-3-iodo-1-methyl-1H-indole-5-carboxylic acid], the “SHP2 inhibition, in words” value was “strongly inhibited” and inhibition was half-maximal at 770 ± 150 nM (IC50).

The compound `Cn1c(-c2cccc(NC(=O)C(=O)Nc3cccc(I)c3)c2)c(I)c2cc(C(=O)O)c(O)cc21` [11a-20, 6-hydroxy-3-iodo-2-(3-(2-((3-iodophenyl)amino)-2-oxoacetamido)phenyl)-1-methyl-1H-indole-5-carboxylic acid] displayed an IC50 of 5420 ± 1010 nM.

Take `Cn1c(-c2cccc(NC(=O)C(=O)Nc3ccc(-n4ccnc4)cc3)c2)c(I)c2cc(C(=O)O)c(O)cc21` [11a-12, 2-(3-(2-((4-(1H-imidazol-1-yl)phenyl)amino)-2-oxoacetamido)phenyl)-6-hydroxy-3-iodo-1-methyl-1H-indole-5-carboxylic acid]: the IC50 came out at 1490 ± 150 nM.

For the compound `Cn1c(-c2cccc(NC(=O)CCC(=O)Nc3cccc(OCc4ccccc4)c3)c2)c(I)c2cc(C(=O)O)c(O)cc21` [11c-4, 2-(3-(4-((3-(benzyloxy)phenyl)amino)-4-oxobutanamido)phenyl)-6-hydroxy-3-iodo-1-methyl-1H-indole-5-carboxylic acid], the IC50 stood at 4500 ± 1400 nM.

Consider `Cn1c(-c2cccc(NC(=O)C(=O)Nc3ccccc3-c3ccc(CO)o3)c2)c(I)c2cc(C(=O)O)c(O)cc21` [11a-23, 6-hydroxy-2-(3-(2-((2-(5-(hydroxymethyl)furan-2-yl)phenyl)amino)-2-oxoacetamido)phenyl)-3-iodo-1-methyl-1H-indole-5-carboxylic acid], for which the midpoint of inhibition, the IC50, lay at 370 ± 10 nM.

`Cn1c(-c2cccc(NC(=O)C(=O)Nc3ccccc3-c3nc4ccccc4[nH]3)c2)c(I)c2cc(C(=O)O)c(O)cc21` [11a-9, 2-(3-(2-((2-(1H-benzo[d]imidazol-2-yl)phenyl)amino)-2-oxoacetamido)phenyl)-6-hydroxy-3-iodo-1-methyl-1H-indole-5-carboxylic acid] displayed an IC50 of 1250 ± 60 nM.

In turn, `Cn1c(-c2cccc(NC(=O)C(=O)Nc3cccc(-c4ccsc4)c3)c2)c(I)c2cc(C(=O)O)c(O)cc21` [11a-26, 6-hydroxy-3-iodo-1-methyl-2-(3-(2-oxo-2-((3-(thiophen-3-yl)phenyl)amino)acetamido)phenyl)-1H-indole-5-carboxylic acid] had an IC50 of 630 ± 40 nM. This IC50 is about 2-fold lower than that of the compound before.

Regarding `Cn1c(-c2cccc(NC(=O)CCC(=O)N3CCc4cc(Br)ccc43)c2)c(I)c2cc(C(=O)O)c(O)cc21` [11c-6, 2-(3-(4-(5-bromoindolin-1-yl)-4-oxobutanamido)phenyl)-6-hydroxy-3-iodo-1-methyl-1H-indole-5-carboxylic acid], the IC50 was 7200 ± 900 nM.

For `Cn1c(-c2cccc(NC(=O)C(=O)Nc3cccc(-c4ccc(C#N)cc4)c3)c2)c(I)c2cc(C(=O)O)c(O)cc21` [11a-25, 2-(3-(2-((4′-cyano-[1,1′-biphenyl]-3-yl)amino)-2-oxoacetamido)phenyl)-6-hydroxy-3-iodo-1-methyl-1H-indole-5-carboxylic acid], the IC50 amounted to 420 ± 20 nM.

Compound `Cn1c(-c2cccc(NC(=O)C(=O)Nc3cccc(OC(F)(F)F)c3)c2)c(I)c2cc(C(=O)O)c(O)cc21` [11a-17, 6-hydroxy-3-iodo-1-methyl-2-(3-(2-oxo-2-((3-(trifluoromethoxy)phenyl)amino)acetamido)phenyl)-1H-indole-5-carboxylic acid] had an IC50 of 2390 ± 150 nM.

`Cn1c(-c2cccc(NC(=O)C(=O)Nc3ccc(F)cc3)c2)c(I)c2cc(C(=O)O)c(O)cc21` [11a-15, 2-(3-(2-((4-fluorophenyl)amino)-2-oxoacetamido)phenyl)-6-hydroxy-3-iodo-1-methyl-1H-indole-5-carboxylic acid] gave an IC50 of 1840 ± 90 nM. The IC50 values of the last two compounds are within 1.5-fold of each other.

In turn, `CCCN(CC1CC1)C(=O)CCC(=O)Nc1cccc(-c2c(I)c3cc(C(=O)O)c(O)cc3n2C)c1` [11c-10, 2-(3-(4-((cyclopropylmethyl)(propyl)amino)-4-oxobutanamido)phenyl)-6-hydroxy-3-iodo-1-methyl-1H-indole-5-carboxylic acid] returned an IC50 above 20000 nM.

As to `Cn1c(-c2cccc(NC(=O)C(=O)Nc3cccc(OCc4ccccc4)c3)c2)c(I)c2cc(C(=O)O)c(O)cc21` [11a-6, 2-(3-(2-((3-(benzyloxy)phenyl)amino)-2-oxoacetamido)phenyl)-6-hydroxy-3-iodo-1-methyl-1H-indole-5-carboxylic acid], the “SHP2 inhibition, in words” value was “submicromolar” and the IC50 was determined as 860 ± 140 nM.

With `Cn1c(-c2cccc(NC(=O)CCC(=O)Nc3cccc(-c4ccccc4)c3)c2)c(I)c2cc(C(=O)O)c(O)cc21` [11c-5, 2-(3-(4-([1,1′-biphenyl]-3-ylamino)-4-oxobutanamido)phenyl)-6-hydroxy-3-iodo-1-methyl-1H-indole-5-carboxylic acid], 5300 ± 900 nM corresponded to half-maximal inhibition (IC50).

`CC(C)c1ccc(NC(=O)CCC(=O)Nc2cccc(-c3c(I)c4cc(C(=O)O)c(O)cc4n3C)c2)cc1` [11c-8, 6-hydroxy-3-iodo-2-(3-(4-((4-isopropylphenyl)amino)-4-oxobutanamido)phenyl)-1-methyl-1H-indole-5-carboxylic acid] displayed an IC50 of 10700 ± 2400 nM.

Take `Cn1c(-c2cccc(NC(=O)C(=O)Nc3ccc(Cl)c(C(F)(F)F)c3)c2)c(I)c2cc(C(=O)O)c(O)cc21` [11a-13, 2-(3-(2-((4-chloro-3-(trifluoromethyl)phenyl)amino)-2-oxoacetamido)phenyl)-6-hydroxy-3-iodo-1-methyl-1H-indole-5-carboxylic acid]: the IC50 worked out at 1760 ± 80 nM.

Consider `Cn1c(-c2cccc(NC(=O)C(=O)N3CCc4cc(Br)ccc43)c2)c(I)c2cc(C(=O)O)c(O)cc21` [11a-7, 2-(3-(2-(5-bromoindolin-1-yl)-2-oxoacetamido)phenyl)-6-hydroxy-3-iodo-1-methyl-1H-indole-5-carboxylic acid], for which the IC50 is 1050 ± 90 nM.

These data come from patent publication US9522881B2, “Hydroxyindole carboxylic acid based inhibitors for oncogenic Src homology-2 domain containing protein tyrosine phosphatase-2 (SHP2)” (Indiana University Research and Technology Corporation, priority 2013, dated 2016).
